In patent publication US11738014B2, “Niraparib particles and uses thereof” (CRITITECH, INC., priority 2021, dated 2023):
≈ marks a conversion by molar mass, not a printed value.

Assays:
[1] = Particle Size Distribution (PSD) by Laser Diffraction (Malvern Mastersizer 3000); format: physicochemical; settings: dispersed in ethyl acetate
Procedure: Particle Size Distribution (PSD) by Laser Diffraction
Particle size analyses were conducted on a Malvern Mastersizer™ 3000 using the Hydro MV™ dispersion unit. A non-validated general PSD method/dispersant method was used to analyze the niraparib samples. The sample preparation procedure performed was as follows: Weigh 10 to 20 mg of niraparib into a 30-mL vial, add 20 mL of ethyl acetate. Disperse the sample by vortexing then sonicating the suspension in an ultrasonic bath for 1 minute. Then transfer the sample suspension to the Malvern Hydro MV™ dispersion unit to obtain obscuration between 5 and 15%.
PSD results from a Dv10 of 0.601 μ to a Dv90 of 12.9μ were obtained. […] Particle size distributions can be viewed in Table 1.

[2] = Specific Surface Area (SSA) determination by BET Sorptometry; format: physicochemical
Procedure: As used herein, the “specific surface area” is the total surface area of the niraparib particle per unit of niraparib mass as measured by the Brunauer-Emmett-Teller (“BET”) isotherm (i.e.: the BET SSA). As will be understood by those of skill in the art, the SSA is determined on a per gram basis and takes into account both agglomerated and non-agglomerated niraparib particles in the composition. The BET specific surface area test procedure is a compendial method included in both the United States Pharmacopeia and the European Pharmacopeia. The niraparib particles have a specific surface area (SSA) of at least 5 m^2/g. In various further embodiments, the niraparib particles have a SSA of at least 6 m^2/g, 7 m^2/g, 8 m^2/g, 9 m^2/g 10 m^2/g, 11 m^2/g, 12 m^2/g, 13 m^2/g, 14 m^2/g, 15 m^2/g, 16 m^2/g, 17 m^2/g, 18 m^2/g, 19 m^2/g, 20 m^2/g, 21 m^2/g, 22 m^2/g, 23 m^2/g, or 24 m^2/g.
Specific Surface Area (SSA) determination by BET Sorptometry
Surface area analyses were conducted on a Quantachrome NOVAtouch™ LX2 BET Sorptometer. Surface area results can be found in Table 1.

[3] = Bulk density analysis by modified USP <616> Bulk Density of Powders Method I (bulk and tapped density); format: physicochemical
Excerpt: As used herein, the bulk density (not tapped) of a particle is the ratio of the mass to the volume (including the interparticulate void volume) of an untapped powder sample.
As used herein, the tapped density of a particle is obtained by mechanically tapping a graduated cylinder containing the sample until little further volume change is observed.
Bulk density analysis by modified USP <616> Bulk Density of Powders Method I

physchem = settings: for solubility at 24 h: 20 °C, aqueous with cosolvent or surfactant or cyclodextrin, thermodynamic from solid
Procedure: The solubility was determined by using a shake-flask method. The drug was added in excess to each solution prepared in duplicate. The vials were placed on a mechanical shaker for 24 hours at 20-25° C. After shaking, solution was removed and filtered through a 0.45 μm PTFE syringe filter and analyzed by UV/Visible spectrophotometry.

Dv-10 [1]: 33.2 μ
Dv-50 [1]: 103 μ
Dv-90 [1]: 267 μ
Surface Area ([2]; BET sorptometer): 0.70 m^2/gm
specific surface area measurement ([2]; material used in dissolution testing): 0.70 m^2/g
Bulk Density ([3]; not tapped): 0.617 gm/cm^3
Tapped Density ([3]; tapped): 0.741 gm/cm^3
solubility at 24 h (physchem; 10% ethanol in water): 56.2 µg/mL (≈ 175 µM)
solubility at 24 h (physchem; 10% methanol in water): 76.4 µg/mL (≈ 238 µM)
solubility at 24 h (physchem; 25% ethanol in water): 332 µg/mL (≈ 1040 µM)
solubility at 24 h (physchem; 25% methanol in water): 204 µg/mL (≈ 637 µM)
solubility versus organic solvent concentration (physchem; methanol or ethanol, 10% and 25%): concentration dependent solubility
Compound: NC(=O)c1cccc2cn(-c3ccc([C@@H]4CCCNC4)cc3)nc12 [Niraparib, (S)-2-(4-(piperidin-3-yl)phenyl)-2H-indazole-7-carboxamide]
